Results taken from patent US12502386B2, “Nitrogen-containing heterocyclic compound and use thereof” (SHANGHAI SHIJIANG BIOTECHNOLOGY CO., LTD, priority 2022, dated 2025).

Legend:
Con-NCI-H82 cell = assay: CellTiter-Glo cell viability, Con-NCI-H82 cell (empty-vector control); assay type: cell-based, human; conditions: Homo sapiens, NCI-H82, NCI-H82 transfected with empty virus vector (control), intracellular ATP, read-out: inhibitory effect on Con-NCI-H82 (IC50)
ov-NNMT NCI-H82 cell = assay: CellTiter-Glo cell viability, ov-NNMT NCI-H82 cell (NNMT overexpressed); assay type: cell-based, human; conditions: Homo sapiens, NCI-H82, NCI-H82 overexpressing NNMT protein, intracellular ATP, read-out: inhibitory effect on OV-NNMT NCI-H82 (IC50)
sh-DNMT1 NCI-H82 cell = assay: CellTiter-Glo cell viability, sh-DNMT1 NCI-H82 cell (DNMT1 knocked down); assay type: cell-based, human; conditions: Homo sapiens, NCI-H82, NCI-H82 with DNMT1 knocked down by shRNA, intracellular ATP, read-out: inhibitory effect on sh-DNMT1 NCI-H82 (IC50)
NCI-H82 = assay: CellTiter-Glo cell viability, tumor cell line NCI-H82; assay type: cell-based; conditions: NCI-H82, 72 h; human small cell lung cancer cell; 3 days of culture; read-out: inhibitory effect on NCI-H82 (IC50)
Procedure: (§1) Cell viability was detected using the Promega CellTiter-Glo kit, cell viability was determined by directly measuring intracellular ATP content. In the experiment, the IC50 value of the compounds prepared in the Examples of the present invention on various tumor cell lines was detected.
(§2) Each tumor cell was cultured in relevant medium. After cell passage, the gradient diluted compounds prepared in the Examples of the present invention was added. After 3 days of culture, the relevant IC50 (50% inhibiting concentration) was measured. The name, source and culture conditions of each tumor cell line were as follows:
Cell line NCI-H82 (ATCC, No. HTB-175) was cultured in 10% fetal bovine serum-containing RPMI1640 medium (+P/S).

G-401 = assay: CellTiter-Glo cell viability, tumor cell line G-401; assay type: cell-based; conditions: G-401, 72 h; human renal carcinoma Wilms cell; 3 days of culture; read-out: inhibitory effect on G-401 (IC50)
Procedure: as §1, §2
Cell line G-401 (ATCC, No. CRL-1441) was cultured in 10% fetal bovine serum-containing McCoy's 5a medium (+P/S).

MDA-MB-453 = assay: CellTiter-Glo cell viability, tumor cell line MDA-MB-453; assay type: cell-based; conditions: Homo sapiens, MDA-MB-453, 72 h; breast cancer cell; 3 days of culture; read-out: inhibitory effect on MDA-MB-453 (IC50)
Procedure: as §1
as §2, with “follows: […]” for “follows:”

SW48 = assay: CellTiter-Glo cell viability, tumor cell line SW48; assay type: cell-based; conditions: SW48, 72 h; human colon adenocarcinoma cell; 3 days of culture; read-out: inhibitory effect on SW48 (IC50)
Procedure: as §1, §2
Cell line SW48 (ATCC, No. CCL-231) was cultured in 10% fetal bovine serum-containing Leibovitz's L-15 medium (+P/S).

CFPAC-1 = assay: CellTiter-Glo cell viability, tumor cell line CFPAC-1; assay type: cell-based; conditions: CFPAC-1, 72 h; human pancreatic cancer cell; 3 days of culture; read-out: inhibitory effect on CFPAC-1 (IC50)
Procedure: as §1, §2
Cell line CFPAC-1 (ATCC, No. CRL-1918) was cultured in 10% fetal bovine serum-containing IMDM medium (+P/S).

786-O = assay: CellTiter-Glo cell viability, tumor cell line 786-O; assay type: cell-based; conditions: Homo sapiens, 786-0, 72 h; clear cell renal cell adenocarcinoma cell; 3 days of culture; read-out: inhibitory effect on 786-O (IC50)
Procedure: as §1, §2
Cell line 786-0 (ATCC, No. CRL-1932) was cultured in 10% fetal bovine serum-containing RPMI164B medium (+P/S).

GB-1 = assay: CellTiter-Glo cell viability, tumor cell line GB-1; assay type: cell-based; conditions: GB-1, 72 h; human brain glioblastoma cell; 3 days of culture; read-out: inhibitory effect on GB-1 (IC50)
Procedure: as §1, §2
Cell line GB-1 (JCRB, No. IFO50489) was cultured in 10% fetal bovine serum-containing DMEM medium (+P/S).
(§3) Cell viability was detected using the Promega CellTiter-Glo kit, cell viability was determined by directly measuring intracellular ATP content. In the experiment, the IC50 value of the compounds prepared in the Examples of the present invention on various brain tumor cell lines was detected.

SF-126 = assay: CellTiter-Glo cell viability, tumor cell line SF-126; assay type: cell-based; conditions: SF-126, 72 h, read-out: inhibitory effect on SF-126 (IC50); human glioblastoma multiforme cell; 3 days of culture
Procedure: as §1, §2
Cell line SF126 (JCRB, No. IFO50286) was cultured in 10% fetal bovine serum-containing EMEM medium (+P/S).
as §3

D341 Med = assay: CellTiter-Glo cell viability, brain tumor cell line D341 Med; assay type: cell-based; conditions: Homo sapiens, 72 h, cerebellar medulloblastoma cell, 3 days of culture, read-out: inhibitory effect on D341 Med (IC50)
Procedure: as §3, §2
Cell line D341 Med (ATCC, No. HTB-187) was cultured in 20% fetal bovine serum-containing EMEM medium (+P/S).

Kelly = assay: CellTiter-Glo cell viability, brain tumor cell line Kelly; assay type: cell-based; conditions: Homo sapiens, 72 h, brain neuroblastoma cell, 3 days of culture, read-out: inhibitory effect on Kelly (IC50)
Procedure: as §3, §2
Cell line Kelly (ECACC, No. 92110411) was cultured in 10% fetal bovine serum and 2 mM glutamine-containing RPMI1640 medium.

NB-1 = assay: CellTiter-Glo cell viability, brain tumor cell line NB-1; assay type: cell-based; conditions: Homo sapiens, NB1, 72 h; brain neuroblastoma cell; 3 days of culture; read-out: inhibitory effect on NB-1 (IC50)
Procedure: as §3
as §2, with “follows: […]” for “follows:”

Row | SMILES | IC50 (Con-NCI-H82 cell) | IC50 (ov-NNMT NCI-H82 cell) | IC50 (sh-DNMT1 NCI-H82 cell) | IC50 (NCI-H82) | IC50 (G-401) | IC50 (MDA-MB-453) | IC50 (SW48) | IC50 (CFPAC-1) | IC50 (786-O) | IC50 (GB-1) | IC50 (SF-126) | IC50 (D341 Med) | IC50 (Kelly) | IC50 (NB-1)
1 | COc1ccc2c(c1OCCCCOc1ccccc1)C(C(Cl)(Cl)Cl)N1CCc3cc4c(cc3C1=C2)OCO4 (centres unmarked) [AB35476] | 0.99 µM | 3.69 µM | 4.56 µM | 0.99 µM | 1.32 µM | 0.85 µM | 1.11 µM | 14.2 µM | 12.3 µM | 15.8 µM | 18.3 µM | 0.89 µM | 1.32 µM | 2.46 µM
2 | COc1ccc2c(c1OC)C(C1CCCC1)N1CCc3cc4c(cc3C1=C2CCCc1ccccc1)OCO4 (centres unmarked) [AB35436] | 1.27 µM | 3.28 µM | 5.32 µM | 1.27 µM | 1.89 µM | 1.01 µM | 1.56 µM | 11.4 µM | 15.4 µM | > 30 µM | 22.1 µM | 1.54 µM | 3.12 µM | 2.98 µM
3 | COc1ccc2c(c1OC)C(C1CCCCC1)N1CCc3cc4c(cc3C1=C2)OCO4 (centres unmarked) [AB31893] | 1.12 µM | 4.12 µM | 5.68 µM | 1.12 µM | 1.44 µM | 1.68 µM | 1.85 µM | 10.9 µM | 9.72 µM | 15.5 µM | 12.3 µM | 1.46 µM | 2.09 µM | 1.88 µM
4 | C=CCOc1c(OC)ccc2c1C(C(Cl)(Cl)Cl)N1CCc3cc4c(cc3C1=C2)OCO4 (centres unmarked) [AB35534] | 1.32 µM | 3.96 µM | 3.84 µM | 1.32 µM | 2.03 µM | 1.88 µM | 2.45 µM | 16.9 µM | 14.3 µM | 20.2 µM | 19 µM | 3.12 µM | 2.09 µM | 1.58 µM
5 | COc1ccc2c(c1N1CCC(C)CC1)C(C1CCCC1)N1CCc3cc4c(cc3C1=C2)OCO4 (centres unmarked) [AB35510] | 0.31 µM | 1.56 µM | 1.86 µM | 0.31 µM | 1.21 µM | 0.56 µM | 1.99 µM | 13.1 µM | 24.7 µM | 14.6 µM | 24.3 µM | 0.76 µM | 2.02 µM | 1.68 µM
6 | COc1ccc2c(c1OCCCc1ccccc1)C(C(Cl)(Cl)Cl)N1CCc3cc4c(cc3C1=C2)OCO4 (centres unmarked) [AB35525] | 0.51 µM | 2.02 µM | 3.15 µM | 0.51 µM | 0.98 µM | 1.68 µM | 2.34 µM | 16.2 µM | 14 µM | > 30 µM | 19.8 µM | 0.96 µM | 3.12 µM | 1.88 µM
7 | CCCC1=C2c3cc4c(cc3CCN2C(C2CCCC2)c2c1ccc(OC)c2OC)OCO4 (centres unmarked) [AB35504] | 2.22 µM | 4.96 µM | 6.76 µM | 2.22 µM | 3.12 µM | 1.96 µM | 3.56 µM | 25.6 µM | 20.4 µM | > 30 µM | > 30 µM | 1.58 µM | 3.03 µM | 3.58 µM
